Assay results reported in ChEMBL document CHEMBL1132232, “7alpha-Iodo and 7alpha-fluoro steroids as androgen receptor-mediated imaging agents” (J Med Chem, 1999).

Key:
[1] = molecular target: T1, Androgen receptor (Homo sapiens) (UniProt P10275); conditions: CV-1
T1 sequence (whole entry): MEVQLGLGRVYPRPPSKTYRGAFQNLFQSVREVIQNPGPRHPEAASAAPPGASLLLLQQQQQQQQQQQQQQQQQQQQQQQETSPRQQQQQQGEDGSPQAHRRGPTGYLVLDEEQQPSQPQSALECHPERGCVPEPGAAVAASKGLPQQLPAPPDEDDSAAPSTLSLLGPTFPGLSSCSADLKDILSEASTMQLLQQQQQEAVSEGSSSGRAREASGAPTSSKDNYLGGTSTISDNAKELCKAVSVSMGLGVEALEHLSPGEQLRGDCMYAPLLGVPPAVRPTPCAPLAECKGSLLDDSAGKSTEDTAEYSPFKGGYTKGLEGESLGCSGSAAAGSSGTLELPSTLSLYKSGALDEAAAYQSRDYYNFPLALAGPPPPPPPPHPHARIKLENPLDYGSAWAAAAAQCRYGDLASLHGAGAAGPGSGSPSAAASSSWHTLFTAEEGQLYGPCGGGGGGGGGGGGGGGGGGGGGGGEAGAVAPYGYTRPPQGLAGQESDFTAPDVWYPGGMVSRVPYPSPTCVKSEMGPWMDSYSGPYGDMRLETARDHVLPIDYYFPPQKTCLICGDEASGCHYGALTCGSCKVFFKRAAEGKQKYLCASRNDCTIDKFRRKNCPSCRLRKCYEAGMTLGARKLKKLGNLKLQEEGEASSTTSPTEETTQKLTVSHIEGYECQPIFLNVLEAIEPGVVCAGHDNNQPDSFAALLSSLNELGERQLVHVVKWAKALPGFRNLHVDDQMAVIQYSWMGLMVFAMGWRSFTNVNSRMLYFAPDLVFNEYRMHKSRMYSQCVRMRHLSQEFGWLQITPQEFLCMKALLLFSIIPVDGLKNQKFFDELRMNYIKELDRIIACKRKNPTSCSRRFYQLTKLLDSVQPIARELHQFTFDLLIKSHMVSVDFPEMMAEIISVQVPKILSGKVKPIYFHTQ
Description: Relative stimulatory activity compared to 5-alpha-DHT in CV-1 cells expressing androgen receptor

Rattus norvegicus [2] = test: Distribution of tissue Radioactivity following Intravenous injection into castrated male rat and 5-alpha-DHT was reported; type: ADME, organism-based; conditions: in vivo
Rattus norvegicus [3] = test: Distribution of tissue Radioactivity following Intravenous injection into castrated male rat prostate/blood; type: ADME, organism-based; conditions: other tissue

CC12CC[C@H]3[C@@H]([C@H](I)CC4CC(=O)CCC43C)[C@@H]1CCC2O (stereo partly drawn)
RSA [1]: 20 | Biodistribution (Rattus norvegicus [2]): 0.94% | Biodistribution (Rattus norvegicus [3]): 1.34%
